From patent US12435091B2, “RNA-binding protein multimerization inhibitors and methods of use thereof” (THE UAB RESEARCH FOUNDATION, priority 2020, dated 2025)
Like-named read-outs stand apart in the source and are kept apart here.

Legend:
Plasma protein binding = format: in vitro ADME
From the text: Plasma protein binding for Compound 19 was 96.44%.

[1] = Mouse liver microsomal stability in vitro; format: in vitro ADME; conditions: liver microsomes, read-out: MLM t1/2
Protocol: Selected compounds were assessed for their aqueous solubility, Log D and mouse and human liver microsomal stability.

[2] = tested on: PDGx neurosphere cell lines (JX12p, X14P, XD456, X1524, and JX22p); assay: RNA-Seq analysis and gene ontology enrichment across all PDGx neurosphere cell lines; format: cell-based; conditions: 3 uM for 12 hours, in four of five neurosphere cell lines
Protocol: Illumina global RNA-sequencing data were generated by utilizing PDGx neurospheres, which have been treated with a compound as described herein (e.g., SRI-42127, 3 uM) for 12 hours or with vehicle as the control. RNA was isolated by using TRIzol reagent (Invitrogen; Carlsbad, CA). The RNA samples were processed.
The RNA-Sequencing data was generated using glioma neurospheres representing the different molecular subtypes (classical, neuronal, and mesenchymal) in the control (treatment with vehicle) and after treatment with SRI-42127, 3 uM for 12 hours. First, analysis of direct HuR mRNA targets and their corresponding cell signaling pathways was performed by using gene sets, which have been defined as the direct HuR targets following tumor neurosphere treatment with DHTS compound, an established modulator of the HuR/mRNA interaction.
Significant down-regulation of the pathways responsible for i) cell cycle progression, ii) DNA replication, iii) transport mature transcript to cytoplasm, iv) DNA strand elongation, v) capped intron-containing pre-mRNA processing, vi) DNA repair, vii) unwinding of DNA, viii) alpha-linolenic (omega 3) and linoleic (omega 6) metabolism, ix) chromosome maintenance, x) messenger RNA splicing was observed. It is established that HuR can control the centrosome and microtubule organizing center in cancer cells. […]

[3] = tested on: inflammatory cytokines, chemokines and other mediators in primary microglial cells; assay: qPCR of inflammatory mediator mRNAs in LPS-activated primary microglia; format: cell-based, mouse; conditions: 24 hours
Protocol: Cultured primary microglial cells isolated from neonatal mouse brain were treated with LPS to achieve activation. Cells were then treated with varying doses of SRI-42127 or vehicle for 24 hours. Total RNA was harvested from the cells and various mRNAs were quantified by qPCR as depicted in FIG. 12. Consistent with microglial activation, there were large inductions of inflammatory cytokines, chemokines and other mediators including IL-1β, IL-6, TNF-α, iNOS, IL-10, CXCL1, CXCL2, CXCL10, CCL2, CCL3, and CCL4. These inductions were as high as ˜3500-fold for IL-6.
Major chemokines CXCL1, CXCL2 and CCL3 were suppressed by more than 2-fold. There was a mixed effect on markers of M2-like markers, with TGF-β1 and YM1 increasing and IL-10 decreasing. As these inflammatory factors were secreted, they were quantified by ELISA in culture medium. The greatest effect was with IL-6 which was suppressed at a lower dose of SRI-42127 (1.7-fold at 0.1 μM) and nearly 10-fold at 1.0 μM. IL-1β and TNF-α were suppressed by 5-fold at 1.0 μM.

LN229 glioma cell line = assay: PrestoBlue cell viability assay; format: cell-based; conditions: Homo sapiens, LN-229; LN229, 48 hours of treatment
Protocol: (§1) PrestoBlue cell viability reagent (ThermoFisher Scientific; Waltham, MA) was used for cell viability assays. The inhibitory dose-response data were normalized to the control (treatment with vehicle); the inhibitory dose-response curves, which were fitted by using Boltzmann equation, and the corresponding IC50s were generated by using OriginPro software (OriginLab Corporation, CA).
(§2) The glioma suppressive potentials of the new class of HuR multimerization inhibitors were evaluated by utilizing SRI-41664 and SRI-42127 compounds in several cell-based assays. First, it was confirmed that the SRI-41664 and SRI-42127 compounds are cytotoxic for established and PDGx cell lines. FIG. 5A illustrates the inhibitory dose responses of SRI-41664 and SRI-42127 compounds in the established U251, LN229, and the PDGx XD456 glioma cell lines. […] An HuR-overexpression approach was employed to confirm SRI-42127 inhibitory potency against HuR dimerization.

[4] = tested on: PDGx XD456 glioma cell line; assay: PrestoBlue cell viability assay; format: cell-based
Protocol: as §1, §2

U251 glioma cell line = assay: PrestoBlue cell viability assay; format: cell-based; conditions: Homo sapiens, U-251, 48 h
Protocol: as §1, §2

U251 cell line = assay: attached cell colony formation assay; format: cell-based; conditions: 3 uM
Protocol: (§3) The soft agar colony formation assay was performed by using 0.9% and 0.45% agarose for the bottom and the top layers, respectively; cells were incorporated in the top layer. Seaplaque low-melting temperature agarose was purchased from Lonza (Rockland, ME). Five hundred cells per well were utilized in both, the soft agar and the attached colony formation assays, which were performed in 6 well plates; cells were treated with vehicle as the control or with the desired drugs, which were administered twice per week for three weeks. The Crystal violet solution (0.1%) was utilized for colony staining in both assays. The colonies were counted after three weeks of treatment; the plate images were obtained by using Amersham Imager-600 reader (Piscataway, NJ).
(§4) Graphs in FIG. 8D illustrate the average numbers of colonies formed by established U251 and PDGx XD456 cell lines in the attached cell colony formation assay and in the soft agar colony formation assay, which represents anchorage independent cell growth.

XD456 cell line = assay: attached cell colony formation assay; format: cell-based; conditions: 3 uM
Protocol: as §3, §4

Compound: CN(c1ccc2ncc(-c3ccc4cn[nH]c4c3)n2n1)C1CCOCC1 [Compound 19]
- fraction unbound (Plasma protein binding): 0.0356
- half-life [1]: 3.3 min
- up-regulation of Tubb2A transcript [2]: more than 2 folds
- suppression of CCL3 mRNA [3]: more than 2 fold
- suppression of CXCL1 mRNA [3]: more than 2 fold
- suppression of CXCL2 mRNA [3]: more than 2 fold
- suppression of IL-1β mRNA [3]: 5.9 fold
- suppression of IL-6 mRNA [3]: 6.8 fold
- suppression of TNF-α mRNA [3]: 1.6 fold
- suppression of iNOS mRNA [3]: 8 fold
- IC50 (LN229 glioma cell line): 3.2 ± 0.6 µM
- IC50 ([4]; Glioma cell, XD456, 48 hours of treatment): 4 ± 0.6 µM
- increase of IC50 for inhibition of cell viability ([4]; XD456, enhancement of HuR-dimer formation approximately by two-fold, 48 hours): 1.9±0.2 fold
- IC50 (U251 glioma cell line; U251, 48 hours of treatment, read-out: IC50 cell viability): 2.8 ± 0.6 µM
- IC50 (U251 glioma cell line; U251 with dox-inducible HuR-dimerization reporters, after enhancement of HuR-dimer formation by two fold, 48 hours, read-out: IC50 for inhibition of cell viability): 8 ± 0.8 µM
- IC50 (U251 glioma cell line; U251 with dox-inducible HuR-dimerization reporters, before enhancement of HuR-dimer formation, 48 hours, read-out: IC50 for inhibition of cell viability): 2.8 ± 0.4 µM
- number of colonies (U251 cell line): 49+28
- number of colonies (XD456 cell line): 34+12
